Patent US7884124B2, “Fluoro-substituted inhibitors of D-amino acid oxidase” (Sepracor Inc., priority 2006, dated 2011)
Read-outs that look alike come from different tables or passages of the source.

Tests used:
Human DAAO = Human DAAO (Homo sapiens, UniProt P14920); test: D-Amino Acid Oxidase Enzyme Assay (D-serine substrate, horseradish peroxidase/Amplex Red coupled fluorescence); assay type: biochemical
Protocol: This coupled reaction uses the enzyme substrate Amplex Red (Molecular Probes), which is converted to the fluorescent reaction product, resorufin (excitation 530-560 nm; emission ˜590 nm). All reagents were prepared in 50 mM sodium phosphate buffer at pH 7.4 and inhibition curves were generated at this pH.
The final concentrations of components in 200 μl total volume per well (black clear-bottom 96-well plate, Costar) were:
(a) Horseradish peroxidase: 4 Units per ml
(d) Amplex Red reagent: 50 uM
The reactions were initiated by addition of DAAO enzyme while the fluorescence was monitored. […] Inhibition curves were generated in the presence of varying concentrations of the inhibitor and IC50 values were calculated for each inhibitor.

[1] = test system: D-Serine Levels in the cerebellum; test: In vivo elevation of D-serine levels in the cerebellum (LC/MS/MS); conditions: Mus musculus, ip, mice, read-out: Fold increase in D-serine in the cerebellum over vehicle; for response vs control in vivo at 50 mg/kg: 50 mg/kg i.p.; for response vs control in vivo at 10 mg/kg: 10 mg/kg i.p.
Protocol: In another example, the compounds activity is determined by measuring D-serine levels in vivo. Elevation of the D-serine level in a certain brain area (e.g., the cerebellum) of a test animal (e.g., mouse, rat, pig and the like) is indicative of DAAO inhibition in vivo. An exemplary assay format, which measures D-serine levels (LC/MS/MS) in the cerebellum of mice two hours and six hours after intraperitoneal (i.p.) dosing, is described herein (e.g., Example 9). Increases in D-serine levels were determined through comparison with vehicle. Useful variations of this assay will be apparent to those of skill in the art. Compounds of the invention are judged to be sufficiently active in this assay when at least one, preferably at least two, more preferably at least three and most preferably all four of the following criteria are met:
Mice (C57BL/6, 8-9 weeks of age) were dosed intraperitoneally at 10 mL/kg with 50 mg/kg or 10 mg/kg of compound suspended in 45% (w/v) hydroxy-β-cyclodextrin vehicle. Animals were sacrificed at either 2 or 6 hours post compound administration with an N=3 per time point. At sacrifice, trunk blood was collected into tubes containing potassium EDTA, which were then centrifuged to permit isolation of plasma. The cerebellum from each animal was dissected. Plasma and cerebellum samples were stored at −80° C. until samples were analyzed (LC/MS/MS).

[2] = D-serine 5 mM, pH 7.4, read-out: Human DAAO Inhibition (IC50)

Chain of Human DAAO (P14920 whole entry): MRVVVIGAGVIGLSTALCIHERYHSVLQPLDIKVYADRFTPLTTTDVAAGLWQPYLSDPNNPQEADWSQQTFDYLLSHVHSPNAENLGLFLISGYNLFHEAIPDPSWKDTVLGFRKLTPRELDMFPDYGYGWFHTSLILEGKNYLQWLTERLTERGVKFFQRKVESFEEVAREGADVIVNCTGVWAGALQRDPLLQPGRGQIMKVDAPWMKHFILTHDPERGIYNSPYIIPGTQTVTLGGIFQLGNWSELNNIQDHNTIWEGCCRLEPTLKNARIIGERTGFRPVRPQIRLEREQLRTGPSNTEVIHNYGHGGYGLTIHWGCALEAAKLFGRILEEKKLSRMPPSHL

| Structure (SMILES) | IC50 (Human DAAO; [2]) [nM] | inhibition at 100 µM (Human DAAO) [%] | response vs control in vivo at 50 mg/kg ([1]; 2 h) [%] | response vs control in vivo at 50 mg/kg ([1]; 6 h) [%] | response vs control in vivo at 10 mg/kg ([1]; 2 h) [%] | response vs control in vivo at 10 mg/kg ([1]; 6 h) [%] | IC50 (Human DAAO) [nM] |
| --- | --- | --- | --- | --- | --- | --- | --- |
| O=C(O)c1cc2sc(Cl)cc2[nH]1 [Compound 4, 2-chloro-4H-thieno[3,2-b]pyrrole-5-carboxylic acid] | < 100000 |  | < 150 | < 150 |  |  |  |
| O=C(O)c1cc2sc(Br)cc2[nH]1 [Compound 5, 2-bromo-4H-thieno[3,2-b]pyrrole-5-carboxylic acid] | < 1000 |  | 150 to 200 | < 150 | < 150 | < 150 |  |
| O=C(O)c1cc2sc(Br)c(Br)c2[nH]1 [Compound 6, 2,3-dibromo-4H-thieno[3,2-b]pyrrole-5-carboxylic acid] | < 100000 |  |  |  |  |  |  |
| O=C(O)c1cc2oc(Cl)cc2[nH]1 [Compound 23, 2-chloro-4H-furo[3,2-b]pyrrole-5-carboxylic acid] | < 100000 |  |  |  |  |  |  |
| O=C(O)c1[nH]c2ccsc2c1F [Compound 54, 6-fluoro-4H-thieno[3,2-b]pyrrole-5-carboxylic acid] | < 25 |  |  |  | > 200 | > 200 |  |
| O=C(O)c1cc2sc(F)cc2[nH]1 [Compound 55, 2-fluoro-4H-thieno[3,2-b]pyrrole-5-carboxylic acid] | < 25 |  | > 200 | 150 to 200 | < 150 | < 150 |  |
| O=C(O)c1[nH]c2sccc2c1Cl [Compound 69, 4-chloro-6H-thieno[2,3-b]pyrrole-5-carboxylic acid] | < 100 |  |  |  |  |  |  |
| O=C(O)c1[nH]c2ccsc2c1Cl [Compound 70, 6-chloro-4H-thieno[3,2-b]pyrrole-5-carboxylic acid] | < 100 |  |  |  | < 150 | < 150 |  |
| O=C(O)c1[nH]c2ccsc2c1Br [Compound 71, 6-bromo-4H-thieno[3,2-b]pyrrole-5-carboxylic acid] | < 1000 |  |  |  | < 150 | < 150 |  |
| O=C(O)c1[nH]c2ccoc2c1Br [Compound 72, 6-bromo-4H-furo[3,2-b]pyrrole-5-carboxylic acid] | < 1000 |  | < 150 | < 150 | < 150 | < 150 |  |
| O=C(O)c1cc2oc(Br)cc2[nH]1 [Compound 73, 2-bromo-4H-furo[3,2-b]pyrrole-5-carboxylic acid] | < 100000 |  |  |  |  |  |  |
| O=C(O)c1cc2occ(F)c2[nH]1 [Compound 74, 3-fluoro-4H-furo[3,2-b]pyrrole-5-carboxylic acid] | < 25 |  | > 200 | > 200 | > 200 | 150 to 200 |  |
| O=C(O)c1[nH]c2ccoc2c1F [Compound 75, 6-fluoro-4H-furo[3,2-b]pyrrole-5-carboxylic acid] | < 25 |  | > 200 | > 200 | > 200 | 150 to 200 |  |
| O=C(O)c1cc2occ(Cl)c2[nH]1 [Compound 76, 3-chloro-4H-furo[3,2-b]pyrrole-5-carboxylic acid] |  |  |  |  | < 150 | < 150 | < 100 |
| O=C(O)c1cc2oc(F)cc2[nH]1 [Compound 78, 2-fluoro-4H-furo[3,2-b]pyrrole-5-carboxylic acid] | < 25 |  |  |  |  |  |  |
| O=C(O)c1[nH]c2ccoc2c1Cl [Compound 79, 6-chloro-4H-furo[3,2-b]pyrrole-5-carboxylic acid] | < 100 |  |  |  |  |  |  |
| O=C(O)c1[nH]c2sccc2c1F [Compound 82, 4-fluoro-6H-thieno[2,3-b]pyrrole-5-carboxylic acid] | < 100 |  |  |  |  |  |  |
| O=C(O)c1[nH]c2sc(Br)cc2c1Br [Compound 84, 2,4-dibromo-6H-thieno[2,3-b]pyrrole-5-carboxylic acid] |  | 33 |  |  |  |  |  |

Now from value to compound, other results behind:

| IC50 (Human DAAO; [2]) [nM] | inhibition at 100 µM (Human DAAO) [%] | Structure (SMILES) | response vs control in vivo at 50 mg/kg ([1]; 2 h) [%] | response vs control in vivo at 50 mg/kg ([1]; 6 h) [%] | response vs control in vivo at 10 mg/kg ([1]; 2 h) [%] | response vs control in vivo at 10 mg/kg ([1]; 6 h) [%] | IC50 (Human DAAO) [nM] |
| --- | --- | --- | --- | --- | --- | --- | --- |
| < 1000 |  | O=C(O)c1cc2c(Br)csc2[nH]1 [Compound 8, 3-bromo-6H-thieno[2,3-b]pyrrole-5-carboxylic acid] | 150 to 200 | 150 to 200 | < 150 | < 150 |  |
| < 100 |  | O=C(O)c1cc2occ(Br)c2[nH]1 [Compound 30, 3-bromo-4H-furo[3,2-b]pyrrole-5-carboxylic acid] | 150 to 200 | < 150 | < 150 | < 150 |  |
| < 100 |  | O=C(O)c1cc2scc(Br)c2[nH]1 [Compound 49, 3-bromo-4H-thieno[3,2-b]pyrrole-5-carboxylic acid] | < 150 | < 150 |  |  |  |
| < 25 |  | O=C(O)c1cc2scc(F)c2[nH]1 [Compound 56, 3-fluoro-4H-thieno[3,2-b]pyrrole-5-carboxylic acid] |  |  | 150 to 200 | < 150 |  |
| < 1000 |  | O=C(O)c1[nH]c2sccc2c1Br [Compound 64, 4-bromo-6H-thieno[2,3-b]pyrrole-5-carboxylic acid] | < 150 | < 150 | < 150 | < 150 |  |
| < 100000 |  | O=C(O)c1cc2cc(Br)sc2[nH]1 [Compound 65, 2-bromo-6H-thieno[2,3-b]pyrrole-5-carboxylic acid] |  |  |  |  |  |
| < 25 |  | O=C(O)c1cc2cc(F)sc2[nH]1 [Compound 66, 2-fluoro-6H-thieno[2,3-b]pyrrole-5-carboxylic acid] | > 200 | 150 to 200 | 150 to 200 | < 150 |  |
| < 25 |  | O=C(O)c1cc2scc(Cl)c2[nH]1 [Compound 67, 3-chloro-4H-thieno[3,2-b]pyrrole-5-carboxylic acid] | < 150 | < 150 | < 150 | < 150 |  |
| < 25 |  | O=C(O)c1cc2c(F)csc2[nH]1 [Compound 68, 3-fluoro-6H-thieno[2,3-b]pyrrole-5-carboxylic acid] | 150 to 200 | 150 to 200 | < 150 | < 150 |  |
| < 100000 |  | O=C(O)c1cc2cc(Cl)sc2[nH]1 [Compound 80, 2-chloro-6H-thieno[2,3-b]pyrrole-5-carboxylic acid] |  |  |  |  |  |
| < 100 |  | O=C(O)c1cc2c(Cl)csc2[nH]1 [Compound 81, 3-chloro-6H-thieno[2,3-b]pyrrole-5-carboxylic acid] |  |  |  |  |  |
